# Measured values published in patent US9637472B2, “Substituted 6,5-fused bicyclic heteroaryl compounds” (Epizyme, Inc., priority 2011, dated 2017).
# Target: EZH2 (Homo sapiens (Human), UniProt Q15910)
# Test: PRC2 enzyme assay on peptide substrates
# Type: biochemical
# Conditions: PRC2 enzyme assays on peptide substrates; 4 nM enzyme, 30 min preincubation at 25° C.; read-out: EZH2 IC50
# From the text: General Materials. S-adenosylmethionine (SAM), S-adenosylhomocyteine (SAH), bicine, KCl, Tween20, dimethylsulfoxide (DMSO) and bovine skin gelatin (BSG) were purchased from Sigma-Aldrich at the highest level of purity possible. Dithiothreitol (DTT) was purchased from EMD. ^3H-SAM was purchased from American Radiolabeled Chemicals with a specific activity of 80 Ci/mmol. 384-well streptavidin Flashplates were purchased from PerkinElmer.
# Substrates. […] The sequences are listed below.
# Recombinant PRC2 Enzymes. Human PRC2 enzymes were purified as 4-component enzyme complexes co-expressed in Spodoptera frugiperda (sf9) cells using a baculovirus expression system. The subunits expressed were wild-type EZH2 (NM_004456) or EZH2 Y641F, N, H, S or C mutants generated from the wild-type EZH2 construct, EED (NM_003797), Suz12 (NM_015355) and RbAp48 (NM_005610). The EED subunit contained an N-terminal FLAG tag that was used to purify the entire 4-component complex from sf9 cell lysates.
# General Procedure for PRC2 Enzyme Assays on Peptide Substrates. The assays were all performed in a buffer consisting of 20 mM bicine (pH=7.6), 0.5 mM DTT, 0.005% BSG and 0.002% Tween20, prepared on the day of use. […] DMSO (1 μL) was added to columns 11, 12, 23, 24, rows A-H for the maximum signal control, and SAH, a known product and inhibitor of PRC2 (1 μL) was added to columns 11, 12, 23, 24, rows I-P for the minimum signal control. A cocktail (40 μL) containing the wild-type PRC2 enzyme and H3K27me0 peptide or any of the Y641 mutant enzymes and H3K27me2 peptide was added by Multidrop Combi (Thermo). The compounds were allowed to incubate with PRC2 for 30 min at 25° C., then a cocktail (10 μL) containing a mixture of non-radioactive and ^3H-SAM was added to initiate the reaction (final volume=51 μL). […] The assays were stopped by the addition of non-radioactive SAM (10 μL) to a final concentration of 600 μM, which dilutes the ^3H-SAM to a level where its incorporation into the peptide substrate is no longer detectable. 50 μL of the reaction in the 384-well polypropylene plate was then transferred to a 384-well Flashplate and the biotinylated peptides were allowed to bind to the streptavidin surface for at least 1 h before being washed three times with 0.1% Tween20 in a Biotek ELx405 plate washer. The plates were then read in a PerkinElmer TopCount platereader to measure the quantity of ^3H-labeled peptide bound to the Flashplate surface, measured as disintegrations per minute (dpm) or alternatively, referred to as counts per minute (cpm).
# Where dpm=disintegrations per minute, cmpd=signal in assay well, and min and max are the respective minimum and maximum signal controls.
# Where top and bottom are the normally allowed to float, but may be fixed at 100 or 0 respectively in a 3-parameter fit. The Hill Coefficient normally allowed to float but may also be fixed at 1 in a 3-parameter fit. Y is the % inhibition and X is the compound concentration.
# Chain of EZH2 (Q15910 other isoform, or with tags, fused parts or gaps): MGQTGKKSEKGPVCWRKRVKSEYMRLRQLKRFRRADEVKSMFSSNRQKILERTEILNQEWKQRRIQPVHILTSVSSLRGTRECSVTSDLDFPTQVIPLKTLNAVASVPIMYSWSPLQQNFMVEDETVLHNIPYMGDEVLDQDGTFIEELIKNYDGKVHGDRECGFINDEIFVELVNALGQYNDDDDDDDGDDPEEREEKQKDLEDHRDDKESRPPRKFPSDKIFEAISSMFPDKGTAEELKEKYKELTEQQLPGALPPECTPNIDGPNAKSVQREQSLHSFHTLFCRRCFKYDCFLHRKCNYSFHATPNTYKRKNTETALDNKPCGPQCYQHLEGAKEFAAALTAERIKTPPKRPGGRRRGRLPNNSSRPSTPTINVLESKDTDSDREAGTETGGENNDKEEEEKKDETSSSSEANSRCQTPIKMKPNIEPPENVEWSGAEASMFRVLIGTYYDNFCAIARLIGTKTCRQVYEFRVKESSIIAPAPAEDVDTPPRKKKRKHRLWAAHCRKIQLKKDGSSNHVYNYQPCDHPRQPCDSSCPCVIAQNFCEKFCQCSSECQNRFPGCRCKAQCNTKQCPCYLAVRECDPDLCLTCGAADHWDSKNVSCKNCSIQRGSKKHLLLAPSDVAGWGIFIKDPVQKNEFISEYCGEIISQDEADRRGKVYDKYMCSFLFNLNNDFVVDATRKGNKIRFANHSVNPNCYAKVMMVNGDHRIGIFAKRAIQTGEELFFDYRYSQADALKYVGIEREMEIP
# Chain of EZH2 (O75530 whole entry partner): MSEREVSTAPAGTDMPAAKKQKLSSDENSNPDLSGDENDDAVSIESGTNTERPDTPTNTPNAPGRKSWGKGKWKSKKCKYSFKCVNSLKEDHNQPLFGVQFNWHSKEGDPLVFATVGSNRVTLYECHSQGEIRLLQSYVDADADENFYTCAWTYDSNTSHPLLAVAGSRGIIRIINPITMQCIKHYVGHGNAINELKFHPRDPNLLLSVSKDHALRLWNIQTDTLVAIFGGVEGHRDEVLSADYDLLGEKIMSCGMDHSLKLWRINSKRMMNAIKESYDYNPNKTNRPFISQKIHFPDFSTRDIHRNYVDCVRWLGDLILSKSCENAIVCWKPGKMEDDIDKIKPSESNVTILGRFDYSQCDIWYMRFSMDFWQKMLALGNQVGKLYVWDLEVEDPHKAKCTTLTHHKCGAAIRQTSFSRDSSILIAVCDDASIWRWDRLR
# Chain of EZH2 (Q15022 whole entry partner): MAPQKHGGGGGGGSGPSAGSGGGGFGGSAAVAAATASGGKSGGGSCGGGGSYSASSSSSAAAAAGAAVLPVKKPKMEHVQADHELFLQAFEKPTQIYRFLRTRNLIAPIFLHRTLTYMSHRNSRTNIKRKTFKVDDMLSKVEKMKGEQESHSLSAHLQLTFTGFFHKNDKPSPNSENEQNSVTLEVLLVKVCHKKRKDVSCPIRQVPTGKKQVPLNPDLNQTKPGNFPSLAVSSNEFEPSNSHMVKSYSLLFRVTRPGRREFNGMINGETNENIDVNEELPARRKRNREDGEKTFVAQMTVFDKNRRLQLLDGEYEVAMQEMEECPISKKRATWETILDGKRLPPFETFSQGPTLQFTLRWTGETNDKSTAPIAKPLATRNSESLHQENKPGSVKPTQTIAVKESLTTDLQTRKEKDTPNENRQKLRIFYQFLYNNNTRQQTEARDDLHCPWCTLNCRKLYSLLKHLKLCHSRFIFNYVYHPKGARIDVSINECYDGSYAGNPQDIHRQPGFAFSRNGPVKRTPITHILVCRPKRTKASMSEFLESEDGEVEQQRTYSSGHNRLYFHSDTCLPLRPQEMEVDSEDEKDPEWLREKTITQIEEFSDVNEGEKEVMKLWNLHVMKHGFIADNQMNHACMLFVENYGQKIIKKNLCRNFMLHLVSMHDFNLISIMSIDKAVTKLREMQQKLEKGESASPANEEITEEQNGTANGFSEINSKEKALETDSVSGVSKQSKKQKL
# Chain of EZH2 (Q09028 whole entry partner): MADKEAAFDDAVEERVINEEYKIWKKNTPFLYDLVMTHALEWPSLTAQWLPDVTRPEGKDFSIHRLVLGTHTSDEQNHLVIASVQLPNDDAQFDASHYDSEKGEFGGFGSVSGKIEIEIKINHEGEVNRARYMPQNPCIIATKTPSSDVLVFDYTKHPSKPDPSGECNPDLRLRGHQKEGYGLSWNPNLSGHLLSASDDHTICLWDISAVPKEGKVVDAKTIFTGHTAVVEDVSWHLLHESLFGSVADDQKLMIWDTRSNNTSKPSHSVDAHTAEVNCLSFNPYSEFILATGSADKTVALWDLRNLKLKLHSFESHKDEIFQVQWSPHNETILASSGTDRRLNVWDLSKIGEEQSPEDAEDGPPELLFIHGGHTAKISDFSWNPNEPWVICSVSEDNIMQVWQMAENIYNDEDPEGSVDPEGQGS
row,Compound,IC50 [nM]
1,"1-cyclopentyl-N-((4,6-dimethyl-2-oxo-1,2-dihydropyridin-3-yl)methyl)-6-(2,2,6,6-tetramethylpiperidin-4-yl)-1H-pyrazolo[3,4-b]pyridine-4-carboxamide [Compound B-4]",< 300
2,"1-cyclopentyl-N-((4,6-dimethyl-2-oxo-1,2-dihydropyridin-3-yl)methyl)-6-(2-ethoxy-4-((4-ethylpiperazin-1-yl)sulfonyl)phenyl)-1H-indazole-4-carboxamide [Compound C-14]",< 300
3,"Cc1cc(C)c(CNC(=O)c2cc(-c3ccc(CN4CCOCC4)cc3)nc3c2cnn3C2CCCC2)c(=O)[nH]1 [Compound A-1, 1-cyclopentyl-N-((4,6-dimethyl-2-oxo-1,2-dihydropyridin-3-yl)methyl)-6-(4-(morpholinomethyl)phenyl)-1H-pyrazolo[3,4-b]pyridine-4-carboxamide]",< 300
4,"Cc1cc(C)c(CNC(=O)c2cc(-c3cccc(CN(C)C)c3)nc3c2cnn3C(C)C)c(=O)[nH]1 [Compound A-3, N-((4,6-dimethyl-2-oxo-1,2-dihydropyridin-3-yl)methyl)-6-(3-((dimethylamino)methyl)phenyl)-1-isopropyl-1H-pyrazolo[3,4-b]pyridine-4-carboxamide]",300 to 1000
5,"Cc1cc(C)c(CNC(=O)c2cc(-c3cnc(N)nc3)nc3c2cnn3C(C)C)c(=O)[nH]1 [Compound A-4, 6-(2-aminopyrimidin-5-yl)-N-((4,6-dimethyl-2-oxo-1,2-dihydropyridin-3-yl)methyl)-1-isopropyl-1H-pyrazolo[3,4-b]pyridine-4-carboxamide]",300 to 1000
6,"Cc1cc(C)c(CNC(=O)c2cc(-c3ccc(N4CCN(C(=O)OC(C)(C)C)CC4)nc3)nc3c2cnn3C(C)C)c(=O)[nH]1 [Compound A-6, tert-butyl 4-(5-(4-(((4,6-dimethyl-2-oxo-1,2-dihydropyridin-3-yl)methyl)carbamoyl)-1-isopropyl-1H-pyrazolo[3,4-b]pyridin-6-yl)pyridin-2-yl)piperazine-1-carboxylate]",300 to 1000
7,"Cc1cc(C)c(CNC(=O)c2cc(-c3ccc(N4CCNCC4)cc3)nc3c2cnn3C(C)C)c(=O)[nH]1 [Compound A-7, N-((4,6-dimethyl-2-oxo-1,2-dihydropyridin-3-yl)methyl)-1-isopropyl-6-(4-(piperazin-1-yl)phenyl)-1H-pyrazolo[3,4-b]pyridine-4-carboxamide]",< 300
8,"Cc1cc(C)c(CNC(=O)c2cc(-c3ccc(N4CCNCC4)nc3)nc3c2cnn3C(C)C)c(=O)[nH]1 [Compound A-10, N-((4,6-dimethyl-2-oxo-1,2-dihydropyridin-3-yl)methyl)-1-isopropyl-6-(6-(piperazin-1-yl)pyridin-3-yl)-1H-pyrazolo[3,4-b]pyridine-4-carboxamide]",< 300
9,"Cc1cc(C)c(CNC(=O)c2cc(-c3cccc(C(=O)NCCCN(C)C)c3)nc3c2cnn3C(C)C)c(=O)[nH]1 [Compound A-13, N-((4,6-dimethyl-2-oxo-1,2-dihydropyridin-3-yl)methyl)-6-(3-((3-(dimethylamino)propyl)carbamoyl)phenyl)-1-isopropyl-1H-pyrazolo[3,4-b]pyridine-4-carboxamide]",< 300
10,"Cc1cc(C)c(CNC(=O)c2cc(-c3ccc(CN)cc3)nc3c2cnn3C(C)C)c(=O)[nH]1 [Compound A-14, 6-(4-(aminomethyl)phenyl)-N-((4,6-dimethyl-2-oxo-1,2-dihydropyridin-3-yl)methyl)-1-isopropyl-1H-pyrazolo[3,4-b]pyridine-4-carboxamide]",< 300
11,"Cc1cc(C)c(CNC(=O)c2cc(-c3ccc(CN(C)CCCN(C)C)cc3)nc3c2cnn3C(C)C)c(=O)[nH]1 [Compound A-15, N-((4,6-dimethyl-2-oxo-1,2-dihydropyridin-3-yl)methyl)-6-(4-(((3-(dimethylamino)propyl)(methyl)amino)methyl)phenyl)-1-isopropyl-1H-pyrazolo[3,4-b]pyridine-4-carboxamide]",< 300
12,"Cc1cc(C)c(CNC(=O)c2cc(-c3ccc(CN4CCOCC4)cc3)nc3c2c(Br)nn3C(C)C)c(=O)[nH]1 [Compound A-17, 3-bromo-N-((4,6-dimethyl-2-oxo-1,2-dihydropyridin-3-yl)methyl)-1-isopropyl-6-(4-(morpholinomethyl)phenyl)-1H-pyrazolo[3,4-b]pyridine-4-carboxamide]",< 300
13,Cc1cc(C)c(CNC(=O)c2cc(-c3ccc(C(=O)NCCN(C)C)cc3)nc3c2cnn3C(C)C)c(=O)[nH]1 [Compound A-18],< 300
14,Cc1cc(C)c(CNC(=O)c2cc(-c3ccc(CN(C)CCN4CCCC4)cc3)nc3c2cnn3C(C)C)c(=O)[nH]1 [Compound A-21],300 to 1000
15,Cc1cc(C)c(CNC(=O)c2cc(-c3ccc(CN(C)C)cc3)nc3c2cnn3C(C)C)c(=O)[nH]1 [Compound A-22],300 to 1000
16,Cc1cc(C)c(CNC(=O)c2cc(-c3cccc(CNCCN)c3)nc3c2cnn3C(C)C)c(=O)[nH]1 [Compound A-26],300 to 1000
17,Cc1cc(C)c(CNC(=O)c2cc(-c3ccnc(N4CCN(C(=O)OC(C)(C)C)CC4)c3)nc3c2cnn3C(C)C)c(=O)[nH]1 [Compound A-27],300 to 1000
18,Cc1cc(C)c(CNC(=O)c2cc(-c3cccc(CN)c3)nc3c2cnn3C(C)C)c(=O)[nH]1 [Compound A-32],300 to 1000
19,Cc1cc(C)c(CNC(=O)c2cc(-c3ccc(CN(C)CCN)cc3)nc3c2cnn3C(C)C)c(=O)[nH]1 [Compound A-33],300 to 1000

row,Compound,IC50 [nM]
1,Cc1cc(C)c(CNC(=O)c2cc(-c3cccc(CN(C)CCN)c3)nc3c2cnn3C(C)C)c(=O)[nH]1 [Compound A-34],300 to 1000
2,Cc1cc(C)c(CNC(=O)c2cc(-c3ccnc(N4CCNCC4)c3)nc3c2cnn3C(C)C)c(=O)[nH]1 [Compound A-37],300 to 1000
3,Cc1cc(C)c(CNC(=O)c2cc(-c3cccc(CN(C)CCN4CCCC4)c3)cc3c2cnn3C(C)C)c(=O)[nH]1 [Compound A-41],300 to 1000
4,Cc1cc(CN(C)C)c(CNC(=O)c2cc(-c3ccc(CN4CCOCC4)cc3)nc3c2cnn3C(C)C)c(=O)[nH]1 [Compound A-43],300 to 1000
5,Cc1cc(C)c(CNC(=O)c2cc(-c3ccc(N4CCN(C(=O)OC(C)(C)C)CC4)nc3)nc3c2cnn3C(C)C)c(=O)[nH]1 [Compound A-44],300 to 1000
6,Cc1cc(C)c(CNC(=O)c2c(Cl)c(-c3ccc4c(c3)OCCO4)cc3c2cnn3C(C)C)c(=O)[nH]1 [Compound A-47],300 to 1000
7,Cc1cc(C)c(CNC(=O)c2cc(-c3cnn(C)c3)nc3c2cnn3C(C)C)c(=O)[nH]1 [Compound A-48],1000 to 3000
8,Cc1cc(C)c(CNC(=O)c2cc(-c3cn[nH]c3)nc3c2cnn3C(C)C)c(=O)[nH]1 [Compound A-49],1000 to 3000
9,Cc1cc(C)c(CNC(=O)c2cc(-c3ccc(N)nc3)nc3c2cnn3C(C)C)c(=O)[nH]1 [Compound A-50],1000 to 3000
10,Cc1cc(C)c(CNC(=O)c2cc(-c3ccc(N4CCN(C(=O)OC(C)(C)C)CC4)cc3)nc3c2cnn3C(C)C)c(=O)[nH]1 [Compound A-51],1000 to 3000
11,Cc1cc(C)c(CNC(=O)c2cc(-c3ccc(C(=O)O)cc3)nc3c2cnn3C(C)C)c(=O)[nH]1 [Compound A-53],1000 to 3000
12,Cc1cc(C)c(CNC(=O)c2cc(-c3cccc(CN4CCOCC4)c3)nc3c2cnn3C(C)C)c(=O)[nH]1 [Compound A-54],1000 to 3000
13,CNCCN(C)Cc1cccc(-c2cc(C(=O)NCc3c(C)cc(C)[nH]c3=O)c3c(n2)N(C(C)C)NC3)c1 [Compound A-58],1000 to 3000
14,Cc1ccc(CNC(=O)c2cc(-c3ccc(N4CCN(C)CC4)nc3)nc3c2cnn3C(C)C)c(=O)[nH]1 [Compound A-60],1000 to 3000
15,Cc1cc(C)c(CNC(=O)c2cc(-c3cccnc3N3CCN(C)CC3)nc3c2cnn3C(C)C)c(=O)[nH]1 [Compound A-63],1000 to 3000
16,Cc1ccc(-n2ncc3c(C(=O)NCc4c(C)cc(C)[nH]c4=O)cc(-c4ccc(N5CCN(C)CC5)nc4)nc32)cc1 [Compound A-65],3000 to 10000
17,Cc1cc(C)c(CNC(=O)c2cc(-c3cccnc3N3CCNCC3)nc3c2cnn3C(C)C)c(=O)[nH]1 [Compound A-66],1000 to 3000
18,Cc1cc(C)c(CNC(=O)c2cc(-c3cccc(C(=O)O)c3)nc3c2cnn3C(C)C)c(=O)[nH]1 [Compound A-67],1000 to 3000
